Test results reported in ChEMBL document CHEMBL5512619, “Anticancer mechanism of coumarin-based derivatives” (Eur J Med Chem, 2024).

What was measured:
SK-OV-3 = test: Antiproliferative activity against human SK-OV-3 cells measured after 21 hrs by MTT assay; type: functional, cell-based; settings: SK-OV-3, 21 h
CCRF-CEM = test: Antiproliferative activity against human CCRF-CEM cells assessed as reduction in cell viability measured after 24 hrs by MTT assay relative to control; type: functional; settings: pooled result: one value given for 6 cell lines, strains, targets or settings
Albumin = Albumin (Homo sapiens, UniProt P02768); test: Reversible binding affinity to human serum albumin
Albumin, sequence (P02768 whole entry): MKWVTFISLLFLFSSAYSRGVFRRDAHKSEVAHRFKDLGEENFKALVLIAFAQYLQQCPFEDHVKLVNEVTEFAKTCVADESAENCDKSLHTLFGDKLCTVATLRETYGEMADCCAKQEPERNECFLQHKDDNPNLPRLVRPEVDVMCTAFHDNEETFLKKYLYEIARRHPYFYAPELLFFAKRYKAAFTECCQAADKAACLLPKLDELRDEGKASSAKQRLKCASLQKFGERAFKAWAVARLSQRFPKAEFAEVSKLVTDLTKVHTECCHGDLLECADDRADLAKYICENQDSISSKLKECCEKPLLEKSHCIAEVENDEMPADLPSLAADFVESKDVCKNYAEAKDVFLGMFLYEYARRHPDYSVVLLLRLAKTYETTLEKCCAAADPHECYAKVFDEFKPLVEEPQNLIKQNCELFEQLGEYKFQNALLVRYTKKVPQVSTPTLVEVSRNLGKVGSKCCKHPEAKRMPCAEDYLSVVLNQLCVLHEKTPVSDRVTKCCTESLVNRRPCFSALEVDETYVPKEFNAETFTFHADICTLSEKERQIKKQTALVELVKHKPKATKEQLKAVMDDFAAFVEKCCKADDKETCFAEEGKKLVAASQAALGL

Carbonic anhydrase 1 = Carbonic anhydrase 1 (Homo sapiens, UniProt P00915); test: Binding affinity to human CA1 assessed as inhibition constant incubated for 6 hrs by phenol red dye based stopped flow CO2 hydration assay
Carbonic anhydrase 1, sequence (P00915 whole entry): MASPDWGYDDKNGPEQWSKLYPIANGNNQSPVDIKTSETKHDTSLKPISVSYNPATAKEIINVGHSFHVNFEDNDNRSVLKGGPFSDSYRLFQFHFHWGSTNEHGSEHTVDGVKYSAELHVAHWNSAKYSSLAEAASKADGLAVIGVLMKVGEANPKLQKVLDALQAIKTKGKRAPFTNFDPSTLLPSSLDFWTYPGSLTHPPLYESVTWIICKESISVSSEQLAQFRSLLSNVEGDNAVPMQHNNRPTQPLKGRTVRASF

Carbonic anhydrase 2 = Carbonic anhydrase 2 (Homo sapiens, UniProt P00918); test: Binding affinity to human CA2 assessed as inhibition constant incubated for 6 hrs by phenol red dye based stopped flow CO2 hydration assay
Steryl-sulfatase = Steryl-sulfatase (Homo sapiens, UniProt P08842); test: Inhibition of STS in human placental microsome; type: microsomes
Steryl-sulfatase, sequence (P08842 whole entry): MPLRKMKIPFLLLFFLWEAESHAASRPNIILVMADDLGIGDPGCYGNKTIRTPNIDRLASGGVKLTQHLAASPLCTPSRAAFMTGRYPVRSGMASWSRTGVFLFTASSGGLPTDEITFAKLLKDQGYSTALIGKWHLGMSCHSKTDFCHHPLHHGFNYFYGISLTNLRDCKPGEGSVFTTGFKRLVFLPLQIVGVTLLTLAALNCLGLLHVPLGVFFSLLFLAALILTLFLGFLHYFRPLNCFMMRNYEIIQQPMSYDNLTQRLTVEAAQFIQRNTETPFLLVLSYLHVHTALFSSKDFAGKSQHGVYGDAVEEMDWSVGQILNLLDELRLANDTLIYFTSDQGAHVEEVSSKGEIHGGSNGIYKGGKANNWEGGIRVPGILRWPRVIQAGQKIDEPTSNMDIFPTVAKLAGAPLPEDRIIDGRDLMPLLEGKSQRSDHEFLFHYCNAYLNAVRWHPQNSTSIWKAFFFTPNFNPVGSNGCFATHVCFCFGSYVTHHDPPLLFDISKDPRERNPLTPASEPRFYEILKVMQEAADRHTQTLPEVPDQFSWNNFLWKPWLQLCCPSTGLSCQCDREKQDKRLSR

[1] = target: Vascular endothelial growth factor receptor 2 (Homo sapiens, UniProt P35968); test: Inhibition of human VEGFR2
Vascular endothelial growth factor receptor 2, sequence (P35968 whole entry): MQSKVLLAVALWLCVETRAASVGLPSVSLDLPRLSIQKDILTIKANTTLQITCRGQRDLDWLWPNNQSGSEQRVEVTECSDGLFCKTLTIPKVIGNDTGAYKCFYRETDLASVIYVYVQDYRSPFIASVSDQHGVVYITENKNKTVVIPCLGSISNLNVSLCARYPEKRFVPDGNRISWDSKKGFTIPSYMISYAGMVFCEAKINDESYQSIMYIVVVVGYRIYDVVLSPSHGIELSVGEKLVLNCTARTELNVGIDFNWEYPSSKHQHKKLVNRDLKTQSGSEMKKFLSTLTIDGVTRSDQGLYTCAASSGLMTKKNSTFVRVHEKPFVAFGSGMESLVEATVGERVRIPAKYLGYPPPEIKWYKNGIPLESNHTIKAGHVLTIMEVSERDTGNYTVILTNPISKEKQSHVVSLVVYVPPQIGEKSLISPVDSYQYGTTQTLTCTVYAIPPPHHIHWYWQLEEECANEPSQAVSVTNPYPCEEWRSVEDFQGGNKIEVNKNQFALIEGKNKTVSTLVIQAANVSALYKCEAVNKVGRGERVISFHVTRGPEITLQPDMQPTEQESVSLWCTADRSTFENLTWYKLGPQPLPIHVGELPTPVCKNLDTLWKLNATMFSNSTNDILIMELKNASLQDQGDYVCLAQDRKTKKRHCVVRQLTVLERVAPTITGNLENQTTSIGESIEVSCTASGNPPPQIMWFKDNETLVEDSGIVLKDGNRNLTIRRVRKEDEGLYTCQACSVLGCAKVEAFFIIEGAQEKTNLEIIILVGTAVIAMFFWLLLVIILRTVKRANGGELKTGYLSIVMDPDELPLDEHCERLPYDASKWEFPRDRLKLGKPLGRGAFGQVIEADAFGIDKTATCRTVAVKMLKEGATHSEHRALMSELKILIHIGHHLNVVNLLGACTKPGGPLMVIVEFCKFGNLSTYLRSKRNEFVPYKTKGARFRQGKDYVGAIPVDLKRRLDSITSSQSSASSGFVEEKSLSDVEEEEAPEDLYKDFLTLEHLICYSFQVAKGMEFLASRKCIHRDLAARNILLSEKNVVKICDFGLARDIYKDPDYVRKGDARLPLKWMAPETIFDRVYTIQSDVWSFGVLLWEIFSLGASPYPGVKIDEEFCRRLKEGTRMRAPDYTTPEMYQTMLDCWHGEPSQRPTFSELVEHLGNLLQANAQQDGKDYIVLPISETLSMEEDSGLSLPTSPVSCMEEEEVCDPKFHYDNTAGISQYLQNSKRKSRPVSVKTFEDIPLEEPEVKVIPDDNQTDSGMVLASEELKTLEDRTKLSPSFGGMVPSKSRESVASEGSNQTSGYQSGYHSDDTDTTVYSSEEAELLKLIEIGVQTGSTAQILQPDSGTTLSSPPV

HCT-116 [2] = test: Antiproliferative activity against human HCT-116 cells measured after 24 hrs by MTT assay; type: functional, cell-based; settings: HCT-116, 24 h
A549 = test: Antiproliferative activity against human A549 cells measured after 24 hrs by MTT assay; type: functional, cell-based; settings: A549, 24 h
HepG2 [3] = test: Antiproliferative activity against human HepG2 cells measured after 24 hrs by MTT assay; type: functional, cell-based; settings: HepG2, 24 h
HeLa [4] = test: Antiproliferative activity against human HeLa cells incubated for 24 hrs by MTT assay; type: functional, cell-based
[5] = Cytotoxicity against human Lu1 cells incubated for 72 hrs by MTT assay; type: functional, cell-based; settings: Lu1, 72 h
[6] = target: Epidermal growth factor receptor (Homo sapiens, UniProt P00533); test: Inhibition of EGFR (unknown origin)
HeLa [7] = test: Cytotoxicity against human HeLa cells incubated for 72 hrs by MTT assay; type: functional, cell-based
[8] = target: Receptor tyrosine-protein kinase erbB-2 (Homo sapiens, UniProt P04626); test: Inhibition of HER2 (unknown origin)
Receptor tyrosine-protein kinase erbB-2, sequence (P04626 whole entry): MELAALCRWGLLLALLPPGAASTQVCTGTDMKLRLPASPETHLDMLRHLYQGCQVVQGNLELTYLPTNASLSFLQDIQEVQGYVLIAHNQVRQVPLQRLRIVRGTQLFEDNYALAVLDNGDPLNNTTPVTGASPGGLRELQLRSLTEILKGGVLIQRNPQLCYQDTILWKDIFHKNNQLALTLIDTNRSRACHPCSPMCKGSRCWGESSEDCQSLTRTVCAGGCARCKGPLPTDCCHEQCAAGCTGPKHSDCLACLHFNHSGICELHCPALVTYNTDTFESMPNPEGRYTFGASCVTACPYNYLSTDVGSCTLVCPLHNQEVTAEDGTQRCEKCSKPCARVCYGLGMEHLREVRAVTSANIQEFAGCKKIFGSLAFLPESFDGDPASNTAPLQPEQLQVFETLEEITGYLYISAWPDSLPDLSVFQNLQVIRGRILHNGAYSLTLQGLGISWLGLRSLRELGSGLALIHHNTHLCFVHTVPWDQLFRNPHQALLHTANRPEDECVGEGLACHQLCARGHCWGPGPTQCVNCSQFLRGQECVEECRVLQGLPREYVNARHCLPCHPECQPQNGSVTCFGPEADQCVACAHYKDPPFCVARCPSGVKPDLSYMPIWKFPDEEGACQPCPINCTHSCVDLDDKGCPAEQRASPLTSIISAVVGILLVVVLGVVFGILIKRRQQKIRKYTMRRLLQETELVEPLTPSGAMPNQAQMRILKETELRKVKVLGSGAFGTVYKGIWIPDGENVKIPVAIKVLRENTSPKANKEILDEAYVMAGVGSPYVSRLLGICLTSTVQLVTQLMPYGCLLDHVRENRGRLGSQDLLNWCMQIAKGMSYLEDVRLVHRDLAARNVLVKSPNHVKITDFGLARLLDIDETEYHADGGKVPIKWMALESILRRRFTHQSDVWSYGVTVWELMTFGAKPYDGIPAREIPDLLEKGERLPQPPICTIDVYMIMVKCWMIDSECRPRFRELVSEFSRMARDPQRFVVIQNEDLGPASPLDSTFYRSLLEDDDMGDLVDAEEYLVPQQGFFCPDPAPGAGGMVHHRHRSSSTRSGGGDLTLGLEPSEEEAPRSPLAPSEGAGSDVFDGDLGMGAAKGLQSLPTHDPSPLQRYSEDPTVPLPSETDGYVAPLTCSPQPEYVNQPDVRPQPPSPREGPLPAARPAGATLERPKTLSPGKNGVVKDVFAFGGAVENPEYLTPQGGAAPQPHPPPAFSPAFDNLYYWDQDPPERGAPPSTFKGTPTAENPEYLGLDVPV

HepG2 [9] = test: Cytotoxicity against human HepG2 cells incubated for 72 hrs by MTT assay; type: functional, cell-based; settings: HepG2, 72 h
MCF7 = test: Antiproliferative activity against human MCF7 cells measured after 72 hrs by SRB method; type: functional, cell-based; settings: MCF7, 72 h
HeLa [10] = test: Antiproliferative activity against human HeLa cells measured after 72 hrs by SRB method; type: functional, cell-based
HCT-116 [11] = test: cells; settings: Homo sapiens, HCT-116, 72 h
Description: Antiproliferative activity against human HCT-116 cells measured after 72 hrs by SRB method

HepG2 [12] = test: Antiproliferative activity against human HepG2 cells measured after 72 hrs by SRB method; type: functional, cell-based; settings: HepG2, 72 h

O=c1ccc2ccc(O[C@@H]3O[C@H](CO[C@@H]4OC[C@](O)(CO)[C@H]4O)[C@@H](O)[C@H](O)[C@H]3O)cc2o1
IC50 (SK-OV-3): > 100 µM

O=C(COc1ccccc1)Nc1ccc2oc(=O)ccc2c1
Activity (CCRF-CEM): 61%

Cc1cc(=O)oc2cc(NCc3ccccc3O)ccc12
Kd (Albumin): 0.03 µM

COc1cc2oc(=O)ccc2cc1O[C@@H]1O[C@H](CO)[C@@H](O)[C@H](O)[C@H]1O
IC50 (SK-OV-3): > 100 µM

Cc1cc(=O)oc2cc(OCc3cn(CCCCCCCCCCOc4ccc5ccc(=O)oc5c4)nn3)ccc12
Ki (Carbonic anhydrase 1): > 10 µM | Ki (Carbonic anhydrase 2): > 10 µM

Cc1c(Cc2ccccc2)c(=O)oc2cc(OS(N)(=O)=O)ccc12
IC50 (Steryl-sulfatase): 0.032 µM

CCCCCCc1c(C)c2ccc(OS(N)(=O)=O)cc2oc1=O
IC50 (Steryl-sulfatase): 0.008 µM

CN(C)c1ccc(C2CC(c3c(O)c4ccccc4oc3=O)=NN2c2nc(-c3ccccc3)c(/N=N/c3ccc(Cl)cc3)s2)cc1 (centres undefined)
IC50 [1]: 0.034 µM

Cc1cc(=O)oc2cc(OCc3cn(CCCCCCCCCCCCOc4ccc5ccc(=O)oc5c4)nn3)ccc12
Ki (Carbonic anhydrase 1): > 10 µM

CC1SC(N2N=C(c3cc4ccccc4oc3=O)CC2c2ccc(N(C)C)cc2)=NC1=O (centres undefined)
IC50 [1]: 0.034 µM

COc1ccc(-c2cc(-c3cc4ccccc4oc3=O)nc3nc(C)[nH]c(=O)c23)cc1
IC50 (HCT-116 [2]): 1.1 µM | IC50 (A549): 1.1 µM | IC50 (HepG2 [3]): 1.1 µM

COc1ccc(-c2cc(-c3cc4ccccc4oc3=O)nc(N)c2C(N)=O)cc1
IC50 (HCT-116 [2]): 1.1 µM | IC50 (A549): 1.1 µM | IC50 (HepG2 [3]): 1.1 µM

COc1ccc(-c2cc(-c3cc4ccccc4oc3=O)nc(NC(C)=O)c2C#N)cc1
IC50 (HCT-116 [2]): 1.1 µM | IC50 (A549): 1.1 µM | IC50 (HepG2 [3]): 1.1 µM

Cc1nc(N2N=C(c3cc4ccccc4oc3=O)CC2c2ccc(N(C)C)cc2)sc1/N=N/c1ccc(Cl)cc1 (centres undefined)
IC50 [1]: 0.034 µM

CC(C)=CC[C@@H](OCCc1ccc(C(=O)/N=C/c2c(Cl)c3ccccc3oc2=O)cc1)C1=CC(=O)c2c(O)ccc(O)c2C1=O
IC50 (HeLa [4]): 3.25 µM

CC(C)(O[C@@H]1O[C@H](CO)[C@@H](O)[C@H](O)[C@H]1O)[C@@H]1Cc2cc3ccc(=O)oc3cc2O1
IC50 (SK-OV-3): > 100 µM

Cc1cc(=O)oc2cc(NCc3cc(I)cc(I)c3O)ccc12
Kd (Albumin): 0.03 µM

CC(=O)OC[C@H]1O[C@@H](N(C(C)=O)C2=NN(C(C)=O)C(c3cc(=O)oc4ccc(OCCC(C)C)cc34)S2)[C@H](OC(C)=O)[C@@H](OC(C)=O)[C@@H]1OC(C)=O (some centres undefined)
IC50 [5]: 1.18 µM | IC50 [6]: 0.22 µM | IC50 (HeLa [7]): 1.18 µM | IC50 [8]: 0.13 µM | IC50 (HepG2 [9]): 1.18 µM

Cc1c2c3c(ccc(C)c3oc1=O)[C@](C)(O)CO2
IC50 (MCF7): 3.95 µM | IC50 (HeLa [10]): 3.95 µM | IC50 (HCT-116 [11]): 3.95 µM | IC50 (HepG2 [12]): 3.95 µM

CC(=O)OC[C@H]1O[C@@H](N(C(C)=O)C2=NN(C(C)=O)C(c3cc(=O)oc4cc(OCC(C)C)ccc34)S2)[C@H](OC(C)=O)[C@@H](OC(C)=O)[C@@H]1OC(C)=O (some centres undefined)
IC50 [5]: 1.18 µM | IC50 [6]: 0.22 µM | IC50 (HeLa [7]): 1.18 µM | IC50 [8]: 0.13 µM | IC50 (HepG2 [9]): 1.18 µM

Cc1cc(=O)oc2cc(NCc3cc(Br)cc(Br)c3O)ccc12
Kd (Albumin): 0.03 µM
